Experimental findings from patent US20260374766A1, “METHODS FOR TREATING CANCER” (Antares Therapeutics, Inc., priority 2022, published 2026) are described below.

One assay deals with NUGC3 p53 Y220C. Nature of the assay: Cell Proliferation Assay (CellTiter-Glo, CTG), NUGC3 p53 Y220C. Type of assay: cell-based. The conditions noted are these: Homo sapiens, NUGC-3, 120 h, NUGC3 cells, 5 days. How it is done:
(§1) Inducible p53 Y220C and R273H constructs (Tet-One inducible expression system; Takara) were stably expressed in NClH1299 cells by lentiviral transduction. NUGC3, A549, BxPC3, T3M4, HuH7, HCC2935, MFE296, NClH1299, NClH1299-inducible p53 Y220C, and NClH1299-inducible p53 R273H cell lines were used for cell proliferation assay. 250-500 cells were seeded in each well of 384 plate and then compounds were dispensed into each well using Echo or Tecan. After 5 days of incubation, equal volume of CellTiter-Glo reagent (G7570; Promega) was added into each well and the plate was incubated at room temperature for 10 minutes with shaking. The luminescent signal was measured by PheraStar microplate reader and IC50 was calculated.

The next assay relates to H1299 p53 R273H. Nature of the assay: Cell Proliferation Assay (CellTiter-Glo, CTG), H1299 p53 R273H (NClH1299-inducible p53 R273H). Type of assay: cell-based. The conditions noted are these: Homo sapiens, NCI-H1299, 120 h, NClH1299-inducible p53 R273H cells, 5 days. How it is done:
as §1

A further assay addresses p53 Y220C (Homo sapiens, UniProt P04637, Y220C). Nature of the assay: Luciferase Reporter Assay (Luc), p53 response element, NClH1299 cells with inducible p53 Y220C. Type of assay: cell-based. The note with it: 6 hour; for AC50: read-out: Luc P53 Y220C AC50. The procedure:
Luciferase Reporter Assay Protocol
The cells were then used for p53 reporter assay. 5,000 cells were seeded in each well of 384 plate and cultured in 0.5 ug/mL doxycycline (D3072; Sigma) containing medium for 24 hours before compound treatment. After 6 hour of compound treatment, equal volume of One-Glo reagent (E6110; Promega) was added to each well and the plate was incubated for 5 minutes with shaking at room temperature. The luciferase activity was immediately measured with PheraStar microplate reader.

For a further assay, the system named is H1299 p53 Y220C. The assay can be described thus: Cell Proliferation Assay (CellTiter-Glo, CTG), H1299 p53 Y220C (NClH1299-inducible p53 Y220C). Type of assay: cell-based. The note with it: Homo sapiens, NCI-H1299, 120 h, NClH1299-inducible p53 Y220C cells, 5 days. The procedure: as §1
Assay [1] concerns the target T1, p53 Y220C mutant protein (amino acid residues 94-293) (Homo sapiens, UniProt P04637, Y220C).
T1 construct: p53 Y220C mutant protein (amino acid residues 94-293)
Nature of the assay: Surface Plasmon Resonance (SPR) assay, Kd_kinetic. Type of assay: binding. The conditions noted are these: SPR; p53 Y220C; read-out: SPR P53 Y220C KD kinetic. How it is done: Surface Plasmon Resonance (SPR) Assay Protocol
SPR experiments were performed on a Biacore 8K instrument. […] The running buffer contained 50 mM Tris, pH 7.5, 100 mM NaCl, 1 mM DTT, 0.01% Brij35, 0.05% Tween-20 and 1% DMSO. The assay temperature was maintained at 16 or 20 °C and data were fit into the 1:1 binding model using the Biacore Insight Evaluation software.

[2] abbreviates: luciferase reporter, NClH1299 inducible p53 Y220C.
Setting [3] is: NClH1299 cells with inducible p53 Y220C.

Like-named read-outs stand apart in the source and are kept apart here.

T1 sequence (P04637 94-293, stated change not applied): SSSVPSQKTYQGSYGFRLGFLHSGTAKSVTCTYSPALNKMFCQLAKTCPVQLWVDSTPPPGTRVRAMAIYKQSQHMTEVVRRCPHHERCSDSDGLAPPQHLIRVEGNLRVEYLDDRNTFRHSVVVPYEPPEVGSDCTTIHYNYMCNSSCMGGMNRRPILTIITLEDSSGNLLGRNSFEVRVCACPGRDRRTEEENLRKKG

On to `CNC(=O)c1ccc(NCC#Cc2nc3c(N[C@H]4C[C@H]5COC[C@H](N5)[C@H]4F)cccn3c2SC(F)(F)F)c(OC)c1` [Example 282], for which the IC50 in the assay with NUGC3 p53 Y220C (CellTiter-Glo) was less than 750 nM; with H1299 p53 R273H (CellTiter-Glo), no less than 10000 nM.

As to `CNS(=O)(=O)c1ccc(NCC#Cc2cc3c(N[C@@H]4CCN(C)C[C@@H]4F)cccn3c2SC(F)(F)F)c(OC)c1` [Example 360], at p53 Y220C (setting [2]), the AC50 was greater than 3000 nM. This molecule returned an Emax on p53 Y220C (setting [2]) of less than 70%. For the same molecule, the results for the IC50 with NUGC3 p53 Y220C (CellTiter-Glo), in the assay with H1299 p53 Y220C (CellTiter-Glo) and in the assay on H1299 p53 R273H (CellTiter-Glo) were greater than 3000 nM, greater than 3000 nM and 5000 to 8000 nM, respectively.

`COc1cc(S(N)(=O)=O)ccc1NCC#Cc1cc2c(N[C@@H]3CCN(C)C[C@@H]3F)cccn2c1SC(F)(F)F` [Example 362]: the AC50 on p53 Y220C (setting [2]) is greater than 3000 nM. In addition, the Emax on p53 Y220C (setting [2]) lay in the range of 70 to 80%. Besides, the IC50 is greater than 3000 nM in the assay with NUGC3 p53 Y220C (CellTiter-Glo), greater than 3000 nM in the assay with H1299 p53 Y220C (CellTiter-Glo) and 8000 to 10000 nM in the assay with H1299 p53 R273H (CellTiter-Glo).

On p53 Y220C (setting [2]), `CNC(=O)c1ccc(NCC#Cc2nn3c(N[C@@H]4CCN(C)C[C@@H]4F)cccc3c2SC(F)F)c(OC)c1` [Example 366] gave an Emax of 70 to 80%. Also, the IC50 was less than 750 nM in the assay on NUGC3 p53 Y220C (CellTiter-Glo), less than 750 nM in the assay with H1299 p53 Y220C (CellTiter-Glo) and no less than 10000 nM with H1299 p53 R273H (CellTiter-Glo).

Regarding `CNC(=O)c1ccc(OC)c(NCC#Cc2cc3c(N[C@@H]4CCN(C[C@@H](C)O)C[C@@H]4F)nccn3c2SC(F)(F)F)c1` [Example 401], the AC50 at p53 Y220C (setting [2]) is less than 750 nM. This molecule also showed an Emax on p53 Y220C (setting [2]) greater than 90%. Further, the IC50 in the assay with NUGC3 p53 Y220C (CellTiter-Glo) is less than 750 nM; with H1299 p53 Y220C (CellTiter-Glo), less than 750 nM; in the assay on H1299 p53 R273H (CellTiter-Glo), 8000 to 10000 nM.

Turning to `COc1ccc(C(=O)NC[C@H](O)CO)cc1NCC#Cc1cc2c(N[C@@H]3CCN(C)C[C@@H]3F)cccn2c1SC(F)(F)F` [Example 425], at p53 Y220C (setting [2]), the half-maximal activity concentration (AC50) was less than 750 nM. The molecule also displayed an Emax at p53 Y220C (setting [2]) greater than 90%. In addition, the IC50 is less than 750 nM with NUGC3 p53 Y220C (CellTiter-Glo), less than 750 nM in the assay with H1299 p53 Y220C (CellTiter-Glo) and no less than 10000 nM with H1299 p53 R273H (CellTiter-Glo).

In the case of `COc1cc(P(C)(C)=O)ncc1NCC#Cc1cc2c(N[C@@H]3CCN(C)C[C@@H]3F)cccn2c1SC(F)(F)F` [Example 439, 2-(3-{[6-(dimethylphosphoryl)-4-methoxypyridin-3-yl]amino}prop-1-yn-1-yl)-N-[(3S,4R)-3-fluoro-1-methylpiperidin-4-yl]-3-[(trifluoromethyl)sulfanyl]indolizin-8-amine], on p53 Y220C (setting [2]), the AC50 was less than 750 nM. In addition, the Emax at p53 Y220C (setting [2]) is greater than 90%. Moreover, the IC50 with NUGC3 p53 Y220C (CellTiter-Glo) is less than 750 nM; with H1299 p53 Y220C (CellTiter-Glo), less than 750 nM; in the assay with H1299 p53 R273H (CellTiter-Glo) it was no less than 10000 nM.

For `CN1CC[C@@H](Nc2cccn3c(SC(F)(F)F)c(C#CCNc4cc(C(=O)NCC(C)(C)O)ccc4OC4COC4)cc23)[C@@H](F)C1` [Example 459, 3-{[3-(8-{[(3S,4R)-3-fluoro-1-methylpiperidin-4-yl]amino}-3-[(trifluoromethyl)sulfanyl]indolizin-2-yl)prop-2-yn-1-yl]amino}-N-(2-hydroxy-2-methylpropyl)-4-(oxetan-3-yloxy)benzamide], at p53 Y220C (setting [3]), the AC50 was less than 750 nM. This molecule also returned an Emax at p53 Y220C (NClH1299 cells with inducible p53 Y220C, 10 uM tool compound as positive control) greater than 90%. The results for the IC50 with NUGC3 p53 Y220C, with H1299 p53 Y220C and in the assay on H1299 p53 R273H were less than 750 nM, less than 750 nM and no less than 10000 nM, respectively.

For the molecule `CNC(=O)c1ccc(OC)c(NCC#Cc2cc3c(N[C@@H]4CCN(C)C[C@@H]4F)cccn3c2CC(F)(F)F)c1` [Example 509], the Kd in assay [1] is less than 10 nM. The AC50 at p53 Y220C (setting [3]) is less than 750 nM. The IC50 in the assay on NUGC3 p53 Y220C and in the assay with H1299 p53 Y220C was less than 750 nM each time.

As to `CNC(=O)c1ccc(NCC#Cc2cc3c(N[C@@H]4CCN(C)C[C@@H]4F)cccn3c2CC(F)(F)F)c(OC)c1` [Example 510], in assay [1], the Kd is less than 10 nM. Moreover, the AC50 at p53 Y220C (setting [3]) is less than 750 nM. The half-maximal inhibitory concentration (IC50) in the assay with NUGC3 p53 Y220C and with H1299 p53 Y220C was less than 750 nM in each case.
